According to patent US20160017326A1, “MICRORNAS AS FUNCTIONAL MEDIATORS AND BIOMARKERS OF BONE METASTASIS” (THE TRUSTEES OF PRINCETON UNIVERSITY, priority 2013, published 2016):

How the values were obtained:
Balb/c mice = experiment: Systemic pre-miRNA treatment of healthy mice: X-ray, microCT, histology; type: in vivo, mouse; conditions: for osteoclast activity in vivo: intravenous injection; for number of osteoclasts relative to bone surface area (TRAP): 10 μg pre-miRNA i.v. weekly for four weeks
Excerpt: (§1) Hindlimb bones were excised from mice at the end point of each experiment, immediately following X-ray and BLI. Hind limb bones were fixed in 10% neutral-buffered formalin, washed and decalcified in a solution of 10% EDTA for 2 weeks. One limb from each mouse was stored in 70% ethanol for μCT analysis and Von Kossa staining, while the other limb was embedded in paraffin for hematoxylin and eosin (H&E), tartrate-resistant acid phosphatase (TRAP), or immunohistochemical staining. Non-decalcified sections were embedded in resin using the Osteo-bed Bone Embedding Kit (Sigma Aldrich, EM0200) before sectioning, followed by Von Kossa staining. Briefly, sections were rehydrated to H2O, followed by submersion in 1% silver nitrate and exposure to UV light for 5 minutes. Sections were then incubated in 2.5% Sodium Thiosulphate, followed by counterstaining with Nuclear Fast Red and dehydration through Xylene. Histomorphometric analysis was performed on H&E stained bone metastasis sections using the Zeiss Axiovert 200 microscope and the AxioVision software version 4.6.3 SP1. For quantitative analysis of lesion area, a 5× objective was used to focus on the tumor region of interest and images were acquired using an AxioCamICc3 camera set to an exposure of 50 ms. Lesions that were larger than the field of view were quantified by acquiring multiple images to encompass the entire lesion and combined in Adobe Photoshop CS5. Lesion area was quantified by outlining the region(s) of interest and quantifying lesion area. Osteoclast number was assessed as multinucleated TRAP^+ cells along the tumor-bone interface and reported as number/mm of interface as previously reported (Sethi et al., 2011). Immunohistochemical analysis was performed with heat-induced antigen retrieval and an osteocalcin antibody (ABcam, AB93876). A biotinylated secondary antibody was used with Vectastain ABC Kit (Vector Laboratories) and DAB detection kit (Zymed) to reveal the positively stained cells; nuclei were counterstained with hematoxylin
(§2) Anesthetized mice were placed on singlewrapped films (X-OMAT AR, Eastman Kodak) and exposed to X-ray radiography at 35 kV for 15 s using a MX-20 Faxitron instrument. Films were developed using a Konica SRX-101A processor. Changes in bone remodeling and osteolytic lesions (radiolucent lesions) in the hindlimbs of mice were identified and quantified using the ImageJ software (National Institutes of Health)
Femurs and tibias were scanned using the INVEON PET/CT (Siemens Healthcare) at the Preclinical Imaging Shared Resource of Cancer Institute of New Jersey. The X-Ray tube settings were 80 kV and 500 μA and images were acquired at the highest resolution without CCD binning, resulting in a voxel size of 9.44 μm. A 0.66° rotation step through a 195° angular range with 6500 msec exposure was used. The images were reconstructed with Beam Hardening Correction and Hounsfield calibration before being analyzed using the INVEON Research Workplace software (Siemens Healthcare). After processing with a 3D Gaussian filter to reduce noise ROI's were manually segmented that corresponded to the cortical and trabecular bone regions. Cortical regions of interest comprised of 470 μm thick regions (50 slices, 9.4 μm thickness for each slice) located 3 mm distal to the growth plate, while 300 μm thick trabecular sections began 0.27 mm distal to the growth plate.
To evaluate the capacity for these miRNAs to inhibit mouse osteoclast function in vivo, 10 μg of pre-miRNA were injected into the lateral tail-vein of Balb/c mice weekly for four weeks. […] FIG. 6A illustrates representative X-ray, μCT and histological images for TRAP, H&E, Von Kossa, or osteocalcin staining of bones from mice treated with miR-33a, miR-133a, miR-141, miR-190 and miR-219 compared to non-treated control. Regions of interest for trabecular and cortical bone scan and analysis are marked by dashed lines. Scale bar indicates 200 μm, n=6. […]

RAW264.7 cells = experiment: In vitro bone resorption assay on bovine bone slices; type: cell-based, murine; conditions: miRNA transfection, 50 ng/ml RANKL, relative to control cells
Experimental: 5×10^4 pre-osteoclast cells were seeded onto 1 mm thick slices of bovine bone cut using a diamond saw and sterilized by immersion in 70% ethanol. Cells were cultured for 10 days as indicated in 6-well plates, transferred to fresh plates and washed to remove osteoclasts. Bone slices were stained in a solution of 1% toludine blue in 0.5% sodium tetraborate, destained in PBS plus 1% Triton X-100, and imaged by light microscopy.
In vitro bone resorption assay was then used to measure the effect of ectopic miRNA expression on osteoclast activity. […] Referring to this figures, scale bar represents 200 μm. Results were statistically significant with p<0.01 (**) and p<0.001 (***). […] Since these miRNAs may inhibit osteoclast differentiation or function by targeting different mRNAs, the repression of osteoclast differentiation was further examined using combinations of inhibitory miRNAs. Given that transient transfection with 10 pM of miRNA precursors was sufficient to inhibit up to approximately 90% of osteoclast differentiation, RAW264.7 cells were treated with a combination of miRNAs at a reduced concentration of 1 pM total precursors.

[1] = tested on: SCP28 breast cancer cells; experiment: Experimental bone metastasis: intracardiac SCP28 cells in nude mice, BLI, X-ray, histology; type: in vivo, mouse; conditions: for osteolytic bone lesions (X-ray): hindlimbs, pre-miRNA treated; for hind-limb tumor burden / metastatic progression by BLI: pre-miRNA 10 μg/mouse i.v. before and once per week after SCP28 inoculation; for osteolytic bone metastasis: summary statement; for TRAP+ osteoclast number: histology, tumor-bone interface
Excerpt: as §1, §2
All procedures involving mice and experimental protocols were approved by Institutional Animal Care and Use Committee (IACUC) of Princeton University. For bone metastasis studies, 1×10^5 tumor cells were injected into the left cardiac ventricle of anesthetized female athymic Ncr-nu/nu. MiRNA precursors (10 μg/mouse in 100 μl PBS, Applied Biosystems) and Zometa (100 μg/kg) were injected intravenously. Development of metastases was monitored by measuring photon flux of BLI signals in the hindlimbs of mice after retro-orbital injection of 75 mg/kg D-Luciferin and image acquisition using the Xenogen IVIS 200 Imaging System. Data were normalized to the signal on day 0. X-ray examination was performed as previously described (Kang et al., 2003).
After further validating the ability of highly metastatic SCP28 to induce osteoclastogenesis in MOCP5 cells, SCP28 were used for analyzing the effect of miRNAs on bone metastasis development in mice. FIG. 7E illustrates representative images of MOCP-5 cells treated with MDA-MB-231 and SCP28 CMs. Scale bar represents 200 μm. FIGS. 7F and 7G illustrate quantification of osteoclast number and nuclei per osteoclast after MOCP-5 cells were treated with indicated CM as in FIG. 7C. Results were statistically significant with p<0.001 (***) as assessed by Student's t test. Nude mice were systemically treated with control or experimental pre-miRNAs immediately before, and once per week subsequently, after inoculation with SCP28 cells via intracardiac injection. […]

Substance | osteoclast activity in vivo (Balb/c mice) | bone resorption (osteoclast activity) (RAW264.7 cells) | osteolytic bone lesions (X-ray) [1] | hind-limb tumor burden / metastatic progression by BLI [1] | osteolytic bone metastasis [1] | number of osteoclasts relative to bone surface area (TRAP) (Balb/c mice) | TRAP+ osteoclast number [1]
miR-133a: miRNA, SEQ ID NO: 61; delivered as pre-miRNA precursor; targets Mitf and Mmp14 (UUUGGUCCCCUUCAACCAGCUA; delivered as pre-miRNA precursor, chemistry not given here; listed as Homo sapiens) | significantly reduced | dramatically limited osteoclast activity | significant bone degradation | no effect | no measurable effect |  | 
miR-219: miRNA, SEQ ID NO: 66; delivered as pre-miRNA precursor; targets Mitf and Traf6 (UGAUUGUCCAAACGCAAUUCU; delivered as pre-miRNA precursor, chemistry not given here; listed as Homo sapiens) | significantly reduced | dramatically limited osteoclast activity | decreased bone lesions | significant decrease in metastatic burden | capable of inhibiting | significant decrease | significant decrease
miR-190: miRNA, SEQ ID NO: 64; delivered as pre-miRNA precursor; targets Calcr (UGAUAUGUUUGAUAUAUUAGGU; delivered as pre-miRNA precursor, chemistry not given here; listed as Homo sapiens) | significantly reduced | dramatically limited osteoclast activity | significant bone degradation | no effect | no measurable effect |  | significant decrease
miR-141: miRNA, SEQ ID NO: 69; delivered as pre-miRNA precursor; targets Mitf and Calcr (UAACACUGUCUGGUAACGAUGU; delivered as pre-miRNA precursor, chemistry not given here; listed as Homo sapiens) | significantly reduced | dramatically limited osteoclast activity | decreased bone lesions | significant decrease in metastatic burden | capable of inhibiting | significant decrease | significant decrease
